Experiments:
[1] = 25° C. in the dark, 0.1 to 61.0 mmol L^−1, follow-up 3.5 hours; cited from earlier work
[2] = Stability of solid glutathione at 30° C. and 40° C. (UV-visible spectrophotometry after conversion to GSNO); format: physicochemical; settings: for Content (%) 30 days / Content (%) 70 days / Content (%) 105 days / Content (%) 165 days / Content (%) Initial: solid
Description: Samples of solid glutathione (GSH) were stored in amber glass vials and maintained at temperatures of 30° C. and 40° C. for evaluation of its stability. GSH content in the samples was determined by UV-visible spectrophotometry from the reaction between GSH and NaNO2 in acid medium (aqueous HCl solution, 2.0 mol L^−1) forming GSNO with absorption bands at 336 nm and 545 nm. GSNO formation (0.05 mol L^−1) was quantified by the intensity of the GSNO absorption band at 545 nm.

[3] = incorporated in PEO-PPO-PEO gel at 37° C.; cited from earlier work
[4] = Stability of solid GSNO stored at room temperature (absorbance at 336 nm); format: physicochemical; settings: amber glass vials, room temperature (25° C.)
Description: Samples of solid GSNO were stored in amber glass vials and maintained at room temperature (25° C.) for evaluation of its stability. GSNO content in the samples at day 0, after 48 hours (day 2) and after 5 days was quantified from the absorbance readings of the aqueous solutions 500 μmol L^−1 at 336 nm. […] According to the results, after 48-hours of storage at room temperature, decomposition of approximately 52% of the initial GSNO content occurs.

[5] = Stability of GSNO incorporated in PEO-PPO-PEO matrix (Pluronic F-127) under refrigeration; format: physicochemical; settings: for Content (%) 30 days / Content (%) 45 days / Content (%) 110 days / Content (%) Initial: 5-8° C.
[6] = system: excisional wound on the back of Wistar rats; assay: Cutaneous wound healing in an animal model (excisional wound); format: in vivo
Excerpt: 6.1. Acceleration of cutaneous wound healing in an animal model. […] The formulation of freshly prepared GSNO (100 μmol L^−1) was topically applied to the wounds of the animals. Wistar rats (n=10) were housed in individual cages with free access to water. In the first day (Day 0-d0), an excisional wound (2×2 cm) was made on the back of the animals, under general anesthesia. The wound was covered with either pure hydrogel (control animals) or GSNO-containing hydrogel (treated group). Thereafter, the wounds were closed with a dressing. Daily, up to the fourth day after injury, the dressings were removed, and the wounds were gently cleaned with cold saline. The hydrogel (either containing GSNO or not) was applied and the dressing was replaced. From the fifth day after injury on, the wounds were no longer closed with a dressing.
Wound retraction was measured and reepithelization was evaluated histologically. Wound contours were traced in a transparent paper sheet at the day of injury and after 3, 5, 7, 14 and 21 days. The tracing area was determined using image-analysis software (Image-Pro) and the results were expressed as percentages of the initial area. Blood pressure was measured at the beginning and end of the experiments. After euthanasia, a fragment containing the wound and the adjacent healthy skin was removed. The fragments were fixed in formalin solution, processed and embedded in paraffin. The paraffin-embedded specimens were serially sectioned and 5-μm-thick cuts were obtained and stained using the following techniques: hematoxylin-eosin (for overall observation of the tissue fragment), picro-Mallory (for observation of the connective tissue) and picrosirius red (for observation of the collagen fibers). The blood pressure of the control and treated animals was equivalent at the beginning and end of the experiments.

[7] = 50 μmolL^−1 in hydrogel formulation
[8] = 100 μmolL^−1 in hydrogel formulation
[9] = 200 μmolL^−1 in hydrogel formulation
[10] = twenty-one days after injury, superficial and deep areas

For N[C@@H](CSN=O)C(=O)O [S-nitrosocysteine, reference compound], the “thermal decomposition of aqueous solution” value [1] is listed as “undergo spontaneous thermal decomposition”.

In the case of N[C@@H](CCC(=O)N[C@@H](CS)C(=O)NCC(=O)O)C(=O)O [GSH, glutathione], the time remained stable ([2]; solid form, follow up by UV-visible spectrophotometry) is reported as “at least 165 days”, the “Content (%) 30 days” value ([2]; 30° C.) is reported as 100 ± 6% and the “Content (%) 70 days” value ([2]; 30° C.) is reported as 102 ± 6%. The “Content (%) 105 days” value ([2]; 30° C.) was 103 ± 6%, the “Content (%) 165 days” value ([2]; 30° C.) was 100 ± 6% and the “Content (%) Initial” value ([2]; 30° C.) was 100 ± 6%. For the same molecule, the “Content (%) 30 days” value ([2]; 40° C.) was 100 ± 6%, the “Content (%) 70 days” value ([2]; 40° C.) was 100 ± 6% and the “Content (%) 105 days” value ([2]; 40° C.) was 99 ± 6%. The “Content (%) 165 days” value ([2]; 40° C.) was 101 ± 6% and the “Content (%) Initial” value ([2]; 40° C.) was 100 ± 6%.

For CC(=O)N[C@@H](CSN=O)C(=O)O [SNAC, S-nitroso-N-acetylcysteine], the “initial rate of thermal decomposition” value [3] is given as 7.2 μmolL^−1 min^−1 and the “thermal decomposition of aqueous solution” value [1] is given as “undergo spontaneous thermal decomposition”.

For N[C@@H](CCC(=O)N[C@@H](CSN=O)C(=O)NCC(=O)O)C(=O)O [GSNO, S-nitrosoglutathione], the “Content (%) After 2 days” value [4] was 48 ± 6%, the “Content (%) After 5 days” value [4] was 36 ± 6% and the “Content (%) Initial (day 0)” value [4] was 100 ± 6%. For the same molecule, the “Content (%) 30 days” value [5, 7] was 96 ± 6%, the “Content (%) 45 days” value [5, 7] was 89 ± 6% and the “Content (%) 110 days” value [5, 7] was 85 ± 6%. The “Content (%) Initial” value [5, 7] was 100 ± 6%, the “Content (%) 30 days” value [5, 8] was 103 ± 6% and the “Content (%) 45 days” value [5, 8] was 100 ± 6%. The “Content (%) 110 days” value [5, 8] was 80 ± 6%, the “Content (%) Initial” value [5, 8] was 100 ± 6% and the “Content (%) 30 days” value [5, 9] was 90 ± 6%. The “Content (%) 45 days” value [5, 9] was 90 ± 6%, the “Content (%) 110 days” value [5, 9] was 85 ± 6% and the “Content (%) Initial” value [5, 9] was 100 ± 6%. For the same molecule, the “decrease in relation to the initial GSNO content” value ([5]; in PEO-PPO-PEO matrix, 50, 100 and 200 μmol L^−1, 110 days at 5-8° C.) was “about 20%”, the “area of wound reepithelization larger compared to the control group” value ([6]; 7 days after injury) was > 77% and the “wound retraction versus control group” value ([6]; after 3, 5 and 7 days of injury (p=0.01; p=0.05; p=0.007), GSNO-containing hydrogel 100 μmol L^−1) was “greater”. For the same molecule, the “new epidermis formation compared to the control animals” value ([6]; after 14 and 21 days of injury) was “more accentuated”, the “wound contraction in relation to the controls” value ([6]; after 14 and 21 days of injury) was “greater” and the “blood pressure of control and treated animals” value ([6]; beginning and end of the experiments, GSNO 100 μmol L^−1 in Pluronic F-127 hydrogel, topical) was “equivalent”. For the same molecule, the “wound area in control animals larger than in GSNO-treated animals” value ([6]; fourteen days after injury) was 22%, the “number of microvessels in relation to the control group” value ([6]; twenty-one days after injury) was “tendency of increase” and the “total number of mast cells in deep areas of the granulation tissue compared to the control group” value ([6]; twenty-one days after injury) was “+384%”. For the same molecule, the “wound area in control animals larger than in GSNO-treated animals” value ([6]; twenty-one days after injury) was 20%, the “inflammatory cells in granulation tissue of control group in comparison to GSNO-treated group” value [6, 10] was “larger number” and the “number of fibroblasts in granulation tissue compared to the control group” value [6, 10] was “increase”. The “initial rate of thermal decomposition” value [3] was 2.3 μmolL^−1 min^−1 and the “thermal decomposition of aqueous solution” value [1] was “undergo spontaneous thermal decomposition”.

Source: patent US20090311292A1, “PROCESS FOR SYNTHESIS AND INCORPORATION OF NITRIC OXIDE DONORS IN MACROMOLECULAR COMPOSITIONS” (CRISTALIA PRODUTOS QUIMICOS FARMACEUTICOS LTDA., priority 2006, published 2009)
